Article PMC6739329 (Scientific Reports, 2019)
Like-named read-outs stand apart in the source and are kept apart here. Values belong to the compound of their own block, whether it stands above or below them.

Columns and labels:
ENO1 [1] = target: T1, ENO1 (Homo sapiens, UniProt P06733); test: In vitro ENO1 activity assay (2-PGA to PEP, absorbance at 240 nm)
Method: Background signals induced by reaction solutions containing salicylates and 2-PGA, but without ENO1, were subtracted to calculate ΔOD240. […] Percent inhibition was calculated by monitoring the ΔOD240 at 5 min with or without salicylates. Data are mean ± SD (n = 3). Experiments were repeated three times with similar results.
The catalytic activity of ENO1 was tested as previously described with minor modifications[80]. Briefly, increasing concentrations of salicylates were incubated with 0.1 µM ENO1 for 30 min at RT in reaction buffer (10 mM KCl, 5 mM MgSO4, 100 mM triethanolamine pH 7.4).

[2] = target: maltose-binding protein (MBP) (Escherichia coli, UniProt P0AEX9); test: Thermal stability assay of maltose-binding protein (negative control protein); details: 10 mM SA
HEK293 cells [3] = test: Morphology of HEK293 cells treated 15 h with salicylates; assay type: cell-based, human; details: 15 h treatment
Text: Data are mean ± SD (n = 3). […] Scale bar = 20 μm.
changes in HEK293 cells. Scale bar = 50 μm.
changes of HEK293 cells. Scale bar = 50 μm.

PKM2 [4] = target: T2, PKM2 (Homo sapiens, UniProt P14618); test: Thermal stability assay of PKM2 with salicylates; assay type: binding; details: 2 µM PKM2, Tm 42 °C without ligand
T2 construct: each gene was amplified and cloned into pET28a vector for recombinant protein production; 6xHis; made in house; host or cells: Escherichia coli BL21

PKM1 = PKM1 (Homo sapiens, UniProt P14618); test: In vitro PKM activity assay, PKM1; assay type: biochemical; details: SA 0.4 mM
ENO1 [5] = target: T1, ENO1; test: Thermal stability assay of ENO1 with salicylates; details: 2 µM ENO1, Tm 44 °C in the absence of SA or amoB1
Method: Data are mean ± SD (n = 3). Experiments were repeated three times with similar results.
Thermal stability assay was performed with ENO1 and PKM2 as previously described with minor modifications[7].
A thermal stability assay was used to examine the binding activities of ENO1 and PMK2 with salicylates as previously described with minor modifications 6. Purified ENO1 and
final concentration of each protein was 2 μM in 16 μl of reaction buffer (0.1 M HEPES, pH 7.5, 150 mM NaCl, and 5 mM BME). Four μl of a 1:200 dilution of stock SYPRO orange dye (Invitrogen) in reaction buffer was added to achieve a total reaction volume of 20 μl. Thermal melt curves were obtained by heating the protein from 20–95°C and monitoring fluorescence at 590 nm with a CFX96 Real-Time PCR Detection System (Bio-Rad). All curves were obtained in triplicate and averaged.

HEK293 cells [6] = test: In vivo glycolytic activity assay (extracellular lactate); assay type: cell-based, human; details: for Reduction of extracellular lactate levels: 15 hrs
Method: Data are mean ± SD (n = 3).
Glycolytic activity of HEK293 cells in the absence or presence of different concentrations of salicylates was measured by monitoring the level of lactate produced[33],[34]. HEK293 cells were seeded in 96-well tissue culture plates at a density of 10^4 cells/well in 120 µL of complete medium (DMEM medium supplemented with 10% heat-inactivated FBS). Plates were incubated overnight in a CO2 incubator at 37 °C. […] Following a 15 hr incubation in a CO2 incubator at 37 °C, cellular supernatants were collected and lactate levels were measured by colorimetry according to the manufacturer’s instructions for a glycolysis cell-based assay kit (Cayman, Ann Arbor, Michigan).

[7] = resulting from the required aspirin dosage; cited from earlier work
PKM2 [8] = target: T2, PKM2; test: In vitro PKM activity assay (LDH-coupled, NADH to NAD+), PKM2; assay type: biochemical; details: 1.3 ng/µL PKM2
Method: PK activity was measured using a method described previously with minor modifications. In brief, PK activity was measured by monitoring pyruvate-dependent conversion of NADH to NAD^+ by lactate dehydrogenase (LDH). Increasing concentrations of salicylates were incubated with PKM2 (final concentration 1.3 ng/uL) for 30 min at RT in the incubation buffer (50 mM Tris-HCl, pH 7.5, 100 mM KCl, 5 mM MgCl2) before mixing with 1/10 volume of 10X pyruvate kinase reaction buffer (500 mM Tris-HCl, pH 7.5, 500 mM KCl, 50 mM MgCl2, 5 mM PEP (Sigma-Aldrich, P0564), 6 mM ADP (Sigma-Aldrich, A5285), 80 units LDH (Sigma-Aldrich, L1254), 10 mM DTT, and 1.80 mM NADH (SigmaAldrich, N8129)).

PKM2 [9] = target: T2, PKM2; test: Tryptophan (Trp) intrinsic fluorescence assay of PKM2; assay type: binding; details: 1 µM PKM2, 30 min at RT; read-out: Kd (quenching of PKM2 intrinsic fluorescence)
ENO1 [10] = target: T1, ENO1; details: read-out: Kd (quenching of ENO1 intrinsic fluorescence); 1 µM ENO1, 30 min at RT
Method: For the Trp intrinsic fluorescence assay, different concentrations of salicylates were incubated with 1 µM ENO1 for 30 min at RT, then Trp emission fluorescence was obtained (excitation/emission = 295 nm/350 nm). […] Data are mean ± SD (n = 3). Experiments were repeated three times with similar results.
Binding of salicylates to ENO1 and PKM2 was assessed using a Trp intrinsic fluorescence assay as previously described[79].
A Trp intrinsic fluorescence assay was used to examine the binding of salicylates to ENO1
The final concentration of each protein was 1 μM in phosphate-buffered saline (PBS) buffer. The mixtures were subjected to excitation wavelength of 295 nm and the Trp emission fluorescence was recorded at 350 nm using a LS55 fluorescence spectrometer (Perkin Elmer). All data were obtained in triplicate and averaged.

T1 sequence (P06733 whole entry): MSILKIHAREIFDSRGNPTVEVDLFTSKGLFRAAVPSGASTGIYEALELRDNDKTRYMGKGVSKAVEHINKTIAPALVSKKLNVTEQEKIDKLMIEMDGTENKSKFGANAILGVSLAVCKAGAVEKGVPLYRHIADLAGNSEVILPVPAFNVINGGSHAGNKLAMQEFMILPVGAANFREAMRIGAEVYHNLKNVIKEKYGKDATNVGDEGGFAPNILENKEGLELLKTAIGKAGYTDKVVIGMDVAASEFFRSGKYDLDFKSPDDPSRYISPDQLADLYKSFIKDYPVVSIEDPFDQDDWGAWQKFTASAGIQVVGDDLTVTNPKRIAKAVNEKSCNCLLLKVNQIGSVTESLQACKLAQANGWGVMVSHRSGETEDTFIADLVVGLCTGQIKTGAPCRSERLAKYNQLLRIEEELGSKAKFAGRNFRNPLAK
T2 sequence (P14618 whole entry): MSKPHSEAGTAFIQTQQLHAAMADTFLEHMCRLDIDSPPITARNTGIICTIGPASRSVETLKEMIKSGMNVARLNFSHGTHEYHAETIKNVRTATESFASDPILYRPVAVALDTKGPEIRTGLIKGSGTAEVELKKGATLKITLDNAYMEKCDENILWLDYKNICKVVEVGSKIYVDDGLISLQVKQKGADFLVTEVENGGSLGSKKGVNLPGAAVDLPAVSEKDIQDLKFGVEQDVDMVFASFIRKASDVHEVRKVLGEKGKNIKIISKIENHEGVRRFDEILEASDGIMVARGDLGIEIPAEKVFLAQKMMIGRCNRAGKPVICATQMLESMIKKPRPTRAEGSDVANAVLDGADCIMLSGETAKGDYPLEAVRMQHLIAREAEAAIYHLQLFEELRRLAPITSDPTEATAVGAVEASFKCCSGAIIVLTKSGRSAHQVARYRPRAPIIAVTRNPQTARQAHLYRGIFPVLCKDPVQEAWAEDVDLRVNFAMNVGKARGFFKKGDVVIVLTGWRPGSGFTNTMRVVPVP
PKM1, sequence (P14618 1-531 isoform P14618-2, species assumed): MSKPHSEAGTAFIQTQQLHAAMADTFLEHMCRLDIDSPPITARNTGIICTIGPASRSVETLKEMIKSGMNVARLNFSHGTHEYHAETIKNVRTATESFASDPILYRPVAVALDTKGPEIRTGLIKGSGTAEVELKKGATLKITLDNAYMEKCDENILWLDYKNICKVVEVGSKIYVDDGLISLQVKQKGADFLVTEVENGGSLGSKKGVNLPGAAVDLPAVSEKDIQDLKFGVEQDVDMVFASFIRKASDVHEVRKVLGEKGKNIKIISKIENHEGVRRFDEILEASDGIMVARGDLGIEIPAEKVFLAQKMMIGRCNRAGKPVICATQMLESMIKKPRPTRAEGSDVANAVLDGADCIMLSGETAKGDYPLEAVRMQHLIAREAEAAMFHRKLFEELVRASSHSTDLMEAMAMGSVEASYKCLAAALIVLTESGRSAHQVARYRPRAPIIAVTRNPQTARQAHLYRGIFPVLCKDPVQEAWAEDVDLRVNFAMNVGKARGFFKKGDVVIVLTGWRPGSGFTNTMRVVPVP

SMILES: O=C(O)c1ccccc1O [SA, Salicylic acid]
- IC50 (ENO1 [1]): 1300 µM
- Tm of MBP [2]: not altered
- Concentration at which cells were substantially smaller and more spherical (HEK293 cells [3]): ≥ 20000 µM
- Concentration with no detectable morphological deformation of cells (HEK293 cells [3]; microscope): up to 10 mM
- Tm of PKM2 (PKM2 [4]; 5 mM SA): 41 °C
- Effect on PKM1 enzymatic activity (PKM1): did not alter
- Tm of ENO1 (ENO1 [5]; 5 mM SA): 43.0 °C
- Reduction of extracellular lactate levels (HEK293 cells [6]; 0.5 mM SA): 12%
- Reduction of extracellular lactate levels (HEK293 cells [6]; 1.0 mM SA): 27%
- SA in the plasma for analgesic/antipyretic effects [7]: ~ 0.5 mM
- inhibition at 400 µM (PKM2 [8]; 400 µM SA): ≤ 40%

- Potency of ENO1 inhibition relative to SA (times stronger than SA) (ENO1 [1]; ratio of IC50 values): ~ 84 times
- IC50 (ENO1 [1]; read-out: IC50 for ENO1 enzymatic activity, 0.1 µM ENO1, […] 2-PGA, ΔOD240 at 5 min): 15.4 µM
- Kd (PKM2 [9]): 3.2 µM
- Concentration at which cell deformation was observed (HEK293 cells [3]): above 2 µM
- Concentration with no visible morphological changes of cells (HEK293 cells [3]): Up to 2 µM
- Tm of PKM2 (PKM2 [4]; 5 µM amoB1): 42.4 °C
- Tm of ENO1 (ENO1 [5]; 12.5 µM amoB1): 45.1 °C
- IC50 (PKM2 [8]): 15.2 µM
- Kd (ENO1 [10]): 26.9 µM
SMILES: COc1cc(CCc2ccccc2)c(C(=O)O)c(O)c1C/C=C(\C)CCC=C(C)C [amoB1, amorfrutin B1]
- Extracellular lactate levels (HEK293 cells [6]; 20–50 µM amoB1, 15 hr): drastically reduced
- Extracellular lactate levels (HEK293 cells [6]; amoB1 up to 10 µM, 15 hr): not substantially altered
